Biological target: T1, TLR9 (Mus musculus, UniProt Q9EQU3)
T1 construct: endogenous in cells; host or cells: Flt3L-derived dendritic cells cultured from bone marrow of female Balb/C mice
T1 sequence (Q9EQU3 26-1032): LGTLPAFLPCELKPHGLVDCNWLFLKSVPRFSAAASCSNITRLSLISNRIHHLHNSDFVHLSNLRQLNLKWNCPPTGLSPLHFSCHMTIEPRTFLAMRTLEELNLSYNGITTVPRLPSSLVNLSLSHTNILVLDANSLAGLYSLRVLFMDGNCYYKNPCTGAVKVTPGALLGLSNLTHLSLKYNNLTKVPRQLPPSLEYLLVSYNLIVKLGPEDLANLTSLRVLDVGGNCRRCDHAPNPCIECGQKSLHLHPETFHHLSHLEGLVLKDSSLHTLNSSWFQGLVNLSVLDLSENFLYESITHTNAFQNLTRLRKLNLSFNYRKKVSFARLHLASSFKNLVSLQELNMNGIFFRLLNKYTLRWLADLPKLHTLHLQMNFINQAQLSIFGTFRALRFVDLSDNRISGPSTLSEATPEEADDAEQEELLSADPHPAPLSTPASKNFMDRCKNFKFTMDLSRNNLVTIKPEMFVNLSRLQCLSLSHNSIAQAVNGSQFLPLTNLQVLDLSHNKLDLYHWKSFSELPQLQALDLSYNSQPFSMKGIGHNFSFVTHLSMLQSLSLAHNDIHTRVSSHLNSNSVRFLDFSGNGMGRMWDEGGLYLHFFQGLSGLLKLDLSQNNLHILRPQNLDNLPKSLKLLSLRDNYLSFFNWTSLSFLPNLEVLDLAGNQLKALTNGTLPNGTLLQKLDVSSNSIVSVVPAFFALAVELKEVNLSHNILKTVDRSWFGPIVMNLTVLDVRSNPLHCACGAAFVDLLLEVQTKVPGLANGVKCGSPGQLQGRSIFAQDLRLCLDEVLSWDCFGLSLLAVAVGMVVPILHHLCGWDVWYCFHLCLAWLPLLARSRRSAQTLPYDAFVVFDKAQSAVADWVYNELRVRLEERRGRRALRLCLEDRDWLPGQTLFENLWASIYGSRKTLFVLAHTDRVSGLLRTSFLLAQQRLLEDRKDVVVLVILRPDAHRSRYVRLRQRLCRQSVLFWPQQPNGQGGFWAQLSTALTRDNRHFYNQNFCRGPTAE
Experiment: CpG ODN (TLR9 agonist)-induced IFN-α in murine Flt3L-derived dendritic cells
Format: cell-based
Settings: murine Flt3L DC; 1:1 molar ratio
Experimental: Lipid Encapsulation of RNA and ODN. RNA or ODN were encapsulated in liposomes by a process of spontaneous vesicle formation as described in Judge et al., supra, and Jeffs et al., Pharm. Res., 22:362-372 (2005).
Flt3L-derived dendritic cells (DC) were generated as described in Gilliet et al., J. Exp. Med., 195:953-958 (2002), using 100 ng/ml murine Flt3-ligand (Peprotech) supplemented media. Femurs and tibiae of female Balb/C mice were isolated and rinsed in sterile PBS. The ends of bones were cut and marrow harvested in complete media (RPMI 1640, 10% heat inactivated FBS, 1% penicillin/streptomycin, 2 mM L-glutamine, 1 mM sodium pyruvate, 25 mM HEPES, 50 μM 2-mercaptoethanol). Bone marrow cells were passed through a 70 μm strainer and centrifuged at 1000 rpm for 7 min. and resuspended in complete media supplemented with 100 ng/ml murine Flt3L to 2×10^6 cells/ml. 2 ml of cells were seeded in 6-well plates and 1 ml fresh media was added every two to three days. On day 9 of culture, non-adherent cells were washed in complete media and plated into 96-well plates at concentrations ranging from 0.5 to 2.5×10^5 cells/well.
Loxoribine (InvivoGen; San Diego, Calif.), polyIC (Sigma-Aldrich; St. Louis, Mo.), and formulated nucleic acids were diluted in PBS and added to either human PBMC or Flt3L DC cultures. Cells were incubated 24 h at 37° C. before supernatants were assayed for cytokines by ELISA.
Cytokine ELISA. All cytokines were quantified using sandwich ELISA kits according to the manufacturer's instructions. These were mouse and human IFN-α (PBL Biomedical; Piscataway, N.J.) and IL-6 (eBioscience; San Diego, Calif.).

For “polyUmod21: 2′OMe-uridine homopolymer of 21 nucleotides in length (UUUUUUUUUUUUUUUUUUUUU; all 2'-O-methyl, backbone not given here)”, the “level of IFN-α induction by Type B ODN (1826) when co-formulated” value was “no inhibitory effect” and the “level of IFN-α induction by Type C ODN (M362) when co-formulated” value was “no inhibitory effect”.
